The values that follow come from PubChem BioAssay (NCI).

Where “and” joins values, the source holds several entries; their conditions need not be identical. Equal values may be shown once.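 The compound was tested at five concentrations on cells cultured in 96-well plates, with a 48-hour exposure period. At the GI50, growth is halved. TGI is the concentration that stops growth completely.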

The test system of the assay is MDA-MB-468 breast. The experiment in a line: NCI-60 cell line screen, 48 h.

`CCCCc1cc(O)ccc1O`: the GI50 was 14 µM and the TGI was determined as 31.7 µM.
With `O=[N+]([O-])/C=C\c1ccc2c(c1)OCO2`, the GI50 was 2.17 µM and the TGI worked out at 5.82 µM.
On the same counts, the results for `COc1cccc2c(=O)c3c(sc12)c(NCCCN)nc1ccccc13` are 1.63 µM and 3.2 µM.
On the same counts, the results for `CCN(CC)C(=S)SSC1CCCCC1` are 19.4 µM and 49.4 µM.
In the same order, the values of `CC(=O)Oc1ccc2c(c1)CC[C@@H]1C2[C@@H](O[N+](=O)[O-])C[C@@]2(C)C1CC[C@@H]2O` (some centres not stated) are 22.5 µM and 89.2 µM.
`O=Nc1c2cccnc2n2nnc3ccc(Cl)cc3c12`: the GI50 is 0.136 µM and the TGI is 0.701 µM.
On the same counts, the results for `CC1(C)C(=O)/C(=C\c2ccco2)C[C@]2(C)[C@H]3CC=C4[C@@H]5C[C@](C)(C(=O)O)CC[C@]5(C)CC[C@@]4(C)[C@]3(C)CC[C@@H]12` are 10.7 µM and 26.5 µM.
In the same order, the values of `COc1cccc(C2c3cc4c(cc3OC(N3CCOCC3)C2C)OCO4)c1O` (configuration not stated) are 4.26 µM and greater than 100 µM.
In the same order, the values of `Cc1ccc(-c2cc3nc(-c4ccccc4)nc(C(Cl)Cl)n3n2)cc1` are 0.383 µM and 1.31 µM.
As to `ClCCn1cnc2c(SCc3ccccc3)ncnc21`, the GI50 was 11.1 µM and the TGI is greater than 100 µM.
In the same order, the values of `O=C(/C=C/c1ccc([N+](=O)[O-])o1)NNC(=O)c1cc2ccccc2cc1O` are 0.721 µM and 3.59 µM.
On the same counts, the results for `OC1CCC(Oc2cccc3cnc(Nc4ccc5nc[nH]c5c4)nc23)CC1` (configuration not stated) are 0.327 µM and 1.37 µM.
On the same counts, the results for `C=C(CNCCO)[C@@H]1CC[C@]2(CO)CC[C@]3(C)[C@H](CC[C@@H]4[C@@]5(C)CCC(NCCc6ccc(O)cc6)C(C)(C)[C@@H]5CC[C@]43C)[C@@H]12` (some centres not stated) are 0.782 µM and 2.34 µM.
As to `CS(=O)(=O)Nc1cc(-c2ccc3ncc(C#N)c(NCc4ccccc4F)c3c2)cnc1Cl`, the GI50 was 0.0781 µM and the TGI amounted to 1.08 µM.
In the same order, the values of `CCC(=O)N1C/C(=C/c2ccc(OC)cc2)C(=O)/C(=C/c2ccc(OC)cc2)C1` are 1.85 µM and 4.92 µM.
On the same counts, the results for `CCc1ccc(C2=C(O)C(=O)C(c3ccc(CC)cc3)=C(O)C2=O)cc1` are 1.86 µM and 6.26 µM.
In the same order, the values of `CCN(CC)CC(C)Nc1ccc(C)c2sc3ccccc3c(=O)c12` (configuration not stated) are 2.57 µM and 7.57 µM.
Consider `C=C1C(=O)O[C@H]2[C@H]1CC/C(COC(=O)c1ccc(C(=O)O)s1)=C\CC[C@@]1(C)O[C@@H]21`, for which the GI50 is 1.22 µM and the TGI came out at 3.09 µM.
In the same order, the values of `CN(C)CCNc1cccc2sc3ccc(O)cc3c(=O)c12` are 1.96 µM and 4.56 µM.
On the same counts, the results for `CC1=CC[C@@H]2C(C)(C)[C@@H](O)CC[C@@]2(C)[C@@H]1COc1ccc2ccc(=O)oc2c1` are 3.11 µM and 15 µM.
On the same counts, the results for `Cc1ccc(S(=O)(=O)NCCN2c3nc4ccccc4cc3Sc3cc4ccccc4nc32)cc1` are 13.1 µM and greater than 100 µM.
`CC/C=C\C[C@H](O)C/C=C1/C(=O)C=C[C@@H]1C/C=C\CCCC(N)=O`: the GI50 is 1.12 µM and the TGI is 2.86 µM.
Take `Cn1cnc([N+](=O)[O-])c1Sc1ncnc2nc[nH]c12`: the GI50 was 2.1 µM and 3.37 µM; the TGI is 70.3 µM and > 100 µM.
In the case of `Cc1ccc2c(c1)sc(-c1ccc(N(C)C)cc1)[n+]2C`, the GI50 is 0.302 µM and the TGI was 5.74 µM.
In the same order, the values of `COC(=O)c1ccc2c(c1)c1c(C)c3cnccc3c(C)c1n2C` are 0.225 µM and 0.677 µM.
Regarding `O=C(N/N=C/c1ccc(F)cc1)c1[nH]c2ccc(I)cc2c1-c1ccccc1`, the GI50 was 0.345 µM and the TGI turned out to be 13.9 µM.
In the same order, the values of `O=C1NC(=O)C(c2ccccc2Cl)=C1Nc1cccc(O)c1` are 0.706 µM and 7.16 µM.
In the same order, the values of `Cc1cc(O)cc(C)c1/C=C/c1cncc(C(=O)N(C)C)c1` are greater than 25 µM and greater than 25 µM.
For `COc1ccc(-c2cn3ccnc3c(-c3ccc4ncn(C5CCCCC5)c4c3)n2)cc1`, the GI50 was 0.863 µM and the TGI was greater than 100 µM.
In the same order, the values of `O=C(Nc1ccc(Br)cc1)c1cc(Br)cc(Br)c1O` are 2.32 µM and 5.66 µM.
In the same order, the values of `CCOC(=O)/C=C/c1ccc(C(=O)OCC)[nH]1` are 2.53 µM and 8.16 µM.
